Measured values reported in ChEMBL document CHEMBL5331108, “Design and Synthesis of 4-Fluorophenyl-5-methylene-2(5H)-furanone Derivatives as Potent Quorum Sensing Inhibitors” (J Med Chem, 2023).
Values after ≈ are worked out from the molar mass of the structure shown. Active and inactive are the calls of the source. No cut-off for these calls is given here.

What was measured:
Bacillus pumilus = assay: Antibacterial activity against penicillin-susceptible Bacillus pumilus CMCC63202 assessed as inhibition of bacterial growth incubated for 20 hrs by CLSI protocol based microdilution method; assay type: functional
Pseudomonas aeruginosa [1] = assay: Antibacterial activity against penicillin-susceptible Pseudomonas aeruginosa ATCC27853 assessed as inhibition of bacterial growth incubated for 20 hrs by CLSI protocol based microdilution method; assay type: functional
Pseudomonas aeruginosa [2] = assay: Antibacterial activity against wild type Pseudomonas aeruginosa […] CGMCC1.12483 assessed as inhibition of bacterial growth incubated for 20 hrs by CLSI protocol based microdilution method; assay type: functional
Bacillus subtilis = assay: Antibacterial activity against penicillin-susceptible Bacillus subtilis ATCC9372 assessed as inhibition of bacterial growth incubated for 20 hrs by CLSI protocol based microdilution method; assay type: functional
Staphylococcus aureus [3] = assay: Antibacterial activity against methicillin-resistant Staphylococcus aureus ATCC43300 assessed as inhibition of bacterial growth incubated for 20 hrs by CLSI protocol based microdilution method; assay type: functional
Staphylococcus aureus [4] = assay: Antibacterial activity against erthromycin-susceptible Staphylococcus aureus ATCC25923 assessed as inhibition of bacterial growth incubated for 20 hrs by CLSI protocol based microdilution method; assay type: functional
Escherichia coli = assay: Antibacterial activity against penicillin-susceptible Escherichia coli ATCC25922 assessed as inhibition of bacterial growth incubated for 20 hrs by CLSI protocol based microdilution method; assay type: functional
Pseudomonas aeruginosa [5] = assay: Antibacterial activity against Pseudomonas aeruginosa 27853 assessed as inhibition of bacterial growth at […] incubated for 24 hrs by absorbance based microplate reader analysis relative to control; assay type: functional; conditions: dose 3.2 µg/ml
[6] = Inhibition of quorum sensing system in Pseudomonas aeruginosa PAO1 assessed as inhibition of pyocyanin production at 102.4 ug/ml incubated for 18 hrs by absorbance based assay; conditions: dose 102.4 µg/ml
Pseudomonas aeruginosa [7] = assay: Synergistic antibacterial activity against Pseudomonas aeruginosa 27853 assessed as inhibition of bacterial growth at 256 ug/ml incubated for 24 hrs in the presence of Clarithromycin by absorbance based microplate reader analysis relative to control; assay type: functional
Pseudomonas aeruginosa [8] = assay: Synergistic antibacterial activity against Pseudomonas aeruginosa PAO1 assessed as inhibition of bacterial growth at 1 to 256 ug/ml incubated for 24 hrs in the presence of ciprofloxacin by absorbance based microplate reader analysis; assay type: functional, organism-based; conditions: dose 1-256 µg/ml
Pseudomonas aeruginosa [9] = assay: Antibacterial activity against Pseudomonas aeruginosa 27853 assessed as inhibition of bacterial growth at 256 ug/ml measured after 25 hrs by absorbance based assay; assay type: functional, organism-based; conditions: dose 256.0 µg/ml
[10] = Inhibition of quorum sensing system in Pseudomonas aeruginosa PAO1 assessed as inhibition of rhamnolipid production at 102.4 ug/ml incubated for 24 hrs by absorbance based assay; conditions: dose 102.4 µg/ml
[11] = Hemolytic activity in mouse red blood cells assessed as hemolysis rate at 512 ug/ml incubated for 1 hrs by microplate reader analysis relative to control; assay type: toxicity, cell-based, Erythrocyte; conditions: red blood cells (erythrocytes), at 512 µg/mL, read-out: Activity
Pseudomonas aeruginosa [12] = assay: Antibacterial activity against Pseudomonas aeruginosa PAO1 assessed as inhibition of bacterial growth at […] incubated for 24 hrs by absorbance based microplate reader analysis relative to control; assay type: functional; conditions: dose 3.2 µg/ml
Pseudomonas aeruginosa [13] = assay: Inhibition of biofilm formation in Pseudomonas aeruginosa PAO1 at 32 ug/ml incubated for 20 hrs by crystal violet staining based analysis; assay type: functional; conditions: dose 32.0 µg/ml
Pseudomonas aeruginosa [14] = assay: Synergistic antibacterial activity against Pseudomonas aeruginosa PAO1 assessed as inhibition of bacterial growth at 256 ug/ml incubated for 24 hrs in the presence of Clarithromycin by absorbance based microplate reader analysis relative to control; assay type: functional
Pseudomonas aeruginosa [15] = assay: Synergistic antibacterial activity against Pseudomonas aeruginosa PAO1 assessed as inhibition of bacterial growth at 1 ug/ml incubated for 24 hrs in the presence of Clarithromycin by absorbance based microplate reader analysis relative to control; assay type: functional
[16] = Inhibition of quorum sensing system in Pseudomonas aeruginosa PAO1 assessed as inhibition of protease activity at 102.4 ug/ml incubated for 24 hrs by absorbance based assay; conditions: dose 102.4 µg/ml
Pseudomonas aeruginosa [17] = assay: Synergistic antibacterial activity against Pseudomonas aeruginosa 27853 assessed as inhibition of bacterial growth at 1 to 256 ug/ml incubated for 24 hrs in the presence of Ciprofloxacin by absorbance based microplate reader analysis; assay type: functional, organism-based; conditions: dose 1-256 µg/ml
Pseudomonas aeruginosa [18] = assay: Synergistic antibacterial activity against Pseudomonas aeruginosa PAO1 assessed as inhibition of bacterial growth at 1 to 256 ug/ml incubated for 24 hrs in the presence of Clarithromycin by absorbance based microplate reader analysis; assay type: functional, organism-based; conditions: dose 1-256 µg/ml
Pseudomonas aeruginosa [19] = assay: Antibacterial activity against Pseudomonas aeruginosa PAO1 assessed as inhibition of bacterial growth at 256 ug/ml measured after 25 hrs by absorbance based assay; assay type: functional, organism-based; conditions: dose 256.0 µg/ml
Pseudomonas aeruginosa [20] = assay: Synergistic antibacterial activity against Pseudomonas aeruginosa 27853 assessed as inhibition of bacterial growth at 64 ug/ml incubated for 24 hrs in the presence of Ciprofloxacin by absorbance based microplate reader analysis; assay type: functional
Pseudomonas aeruginosa [21] = assay: Synergistic antibacterial activity against Pseudomonas aeruginosa 27853 assessed as inhibition of bacterial growth incubated for 24 hrs in the presence of Clarithromycin by absorbance based microplate reader analysis; assay type: functional, organism-based; conditions: dose 1-256 µg/ml
Pseudomonas aeruginosa [22] = assay: Antibacterial activity against Pseudomonas aeruginosa PAO1 assessed as inhibition of bacterial growth at 0.4 ug/ml incubated for 24 hrs by absorbance based microplate reader analysis relative to control; assay type: functional
Pseudomonas aeruginosa [23] = assay: Antibacterial activity against Pseudomonas aeruginosa 27853 assessed as inhibition of bacterial growth at 0.4 ug/ml incubated for 24 hrs by absorbance based microplate reader analysis relative to control; assay type: functional

`CC[C@H]1OC(=O)[C@H](C)[C@@H](O[C@H]2C[C@@](C)(OC)[C@@H](O)[C@H](C)O2)[C@H](C)[C@@H](O[C@@H]2O[C@H](C)C[C@H](N(C)C)[C@H]2O)[C@](C)(OC)C[C@@H](C)C(=O)[C@H](C)[C@@H](O)[C@]1(C)O` [CLARITHROMYCIN] gave an MIC (Bacillus pumilus) of 0.25 µg/mL (≈ 0.334 µM), an MIC (Pseudomonas aeruginosa [1]) of 128 µg/mL (≈ 171 µM) and an MIC (Pseudomonas aeruginosa [2]) of 256 µg/mL (≈ 342 µM). It also gave an MIC (Bacillus subtilis) of 0.25 µg/mL (≈ 0.334 µM), an MIC (Staphylococcus aureus [3]) of 16 µg/mL (≈ 21.4 µM) and an MIC (Staphylococcus aureus [4]) of 0.25 µg/mL (≈ 0.334 µM). The MIC (Escherichia coli) was 128 µg/mL (≈ 171 µM) and the inhibition at […] (Pseudomonas aeruginosa [5]) was 32.7%.
With `C=C1OC(=O)C(CNC(=O)c2ccc(C)cc2)=C1c1ccc(F)cc1` the inhibition [6] was 55.5%, the inhibition at 256 µg/mL (Pseudomonas aeruginosa [7]) was 45.4% and the Activity (Pseudomonas aeruginosa [8]) was “Active”. The MIC (Bacillus pumilus) was > 512 µg/mL, the Activity (Pseudomonas aeruginosa [9]) was “inactive” and the inhibition [10] was “Active”. The hemolysis at 1 h, 512 ug/ml [11] was < 2.5%, the inhibition at […] (Pseudomonas aeruginosa [12]) was 44.6% and the MIC (Pseudomonas aeruginosa [1]) was > 512 µg/mL. For the same compound, the inhibition (Pseudomonas aeruginosa [13]) was “Active”, the inhibition at 256 µg/mL (Pseudomonas aeruginosa [14]) was 44.6% and the MIC (Pseudomonas aeruginosa [2]) was > 512 µg/mL. For the same compound, the inhibition at 1 µg/mL (Pseudomonas aeruginosa [15]) was 54%, the MIC (Bacillus subtilis) was > 512 µg/mL and the MIC (Staphylococcus aureus [3]) was > 512 µg/mL. For the same compound, the inhibition [16] was “Active”, the MIC (Staphylococcus aureus [4]) was > 512 µg/mL and the MIC (Escherichia coli) was > 512 µg/mL. For the same compound, the Activity (Pseudomonas aeruginosa [17]) was “Active”, the Activity (Pseudomonas aeruginosa [18]) was “Active” and the Activity (Pseudomonas aeruginosa [19]) was “inactive”. The inhibition at 64 µg/mL (Pseudomonas aeruginosa [20]) was 13% and the Activity (Pseudomonas aeruginosa [21]) was “Dose-Dependent Effect”.
Compound `O=C(O)c1cn(C2CC2)c2cc(N3CCNCC3)c(F)cc2c1=O` [CIPROFLOXACIN] has an inhibition at 0.4 µg/mL (Pseudomonas aeruginosa [22]) of 42.1% and an inhibition at 0.4 µg/mL (Pseudomonas aeruginosa [23]) of 26.2%.
